Data taken from US12329158B2, “Large-scale methods of uniformly coating packaging surfaces with a volatile antimicrobial to preserve food freshness” (AGROFRESH INC., priority 2013, dated 2025).
In brackets after ≈: the same amount, converted by molar mass. Read-outs that look alike come from different tables or passages of the source.

Tests used:
Assay type in all cases: cell-based
Penicillium expansum [1] = assay: Volatile MIC assay (Example 10); conditions: 72 h, read-out: MIC (mg/L) PENIEX
Description: (§1) 12-Well (6.5 mL volume per well) microtiter plates are used for the in vitro inhibition assay for volatile antimicrobial compounds. A 3-mL volume of full-strength Potato Dextrose Agar (PDA) is added to each well. After cooling, 1 μL of 1×10^5 per mL Botrytis cinerea and Penicillium expansum spore suspension is spot-pipetted to the center of the agar. Plates are inoculated immediately prior to volatile fungicide treatment. A Whatman #1 filter disk (Cat. No. 1001-0155) is placed, in duplicate, on the underside of a polyethylene PCR plate sealing film. […] The headspace around the inoculum is then sealed inside the well by the film with the adhering disk containing the fungicide by inverting the plates over the treated disks and sealing to prevent any of the chemical from flaking from the disk and falling onto the inoculated agar. After 3 days of storage at 23° C., the cultures are evaluated for percent growth relative to control based on measurement of fungal colony diameter.

Botrytis cinerea [2] = assay: Volatile MIC assay (Example 10); conditions: 72 h, read-out: MIC (mg/L) BOTRCI
Description: as §1

Penicillium expansum [3] = assay: In vitro volatile assay (Example 24); conditions: 72 h, headspace, 100% control, 3 days at 23 C, read-out: Volatile MIC (mg/L) P. expansum
Description: (§2) Volatile assay: 12-well (6.5 mL volume per well) microtiter plates are used. A 3-mL volume of half strength PDA is added to each well. […] A Whatman #1 filter disk (Cat. No. 1001-0155) is placed, in duplicate, on the underside of a polyethylene PCR plate sealing film. […] The acetone is permitted to evaporate for 5 minutes. The headspace around the inoculum is then sealed inside the well by the film with the adhering disk containing the fungicide. Plates are inverted, placed over the treated disks, and sealed to prevent any of the chemical from flaking from the disk and falling onto the inoculated agar. […] Contact assay: 6-well (16.5 mL volume per well) microtiter plates are used for an in vitro inhibition assay. […] A 7.5-mL volume of the amended media is added to each well of the microtiter plate. […] The plates are sealed with a clear film and incubated for 3 days at 23° C. After incubation, plates are evaluate for percent growth relative to acetone only control.

Botrytis cinerea [4] = assay: In vitro volatile assay (Example 24); conditions: 72 h, headspace, 100% control, 3 days at 23 C, read-out: Volatile MIC (mg/L) B. cinerea
Description: as §2

P. expansum = assay: In vitro contact assay, amended agar (Example 24); conditions: Penicillium expansum, 72 h, read-out: Contact MIC (mg/L) P. expansum
Description: (§3) Contact assay: 6-well (16.5 mL volume per well) microtiter plates are used for an in vitro inhibition assay. […] A 7.5-mL volume of the amended media is added to each well of the microtiter plate. […] The plates are sealed with a clear film and incubated for 3 days at 23° C. After incubation, plates are evaluate for percent growth relative to acetone only control.

B. cinerea = assay: In vitro contact assay, amended agar (Example 24); conditions: Botrytis cinerea, 72 h, read-out: Contact MIC (mg/L) B. cinerea
Description: as §3

Penicillium expansum [5] = assay: Volatile MIC assay (Example 9); conditions: 72 h, headspace concentration, 3 days at 23 C, read-out: MIC (mg/L) PENIEX
Description: (§4) A 3-mL volume of full-strength Potato Dextrose Agar (PDA) is added to each well. […] Plates are inoculated immediately prior to volatile fungicide treatment. A Whatman #1 filter disk (Cat. No. 1001-0155) is placed, in duplicate, on the underside of a polyethylene PCR plate sealing film. […] The acetone is permitted to evaporate for 5 minutes. The headspace around the inoculum is then sealed inside the well by the film with the adhering disk containing the fungicide by inverting the plates over the treated disks and sealing to prevent any of the chemical from flaking from the disk and falling onto the inoculated agar.

Botrytis cinerea [6] = assay: Volatile MIC assay (Example 9); conditions: 72 h, headspace concentration, 3 days at 23 C, read-out: MIC (mg/L) BOTRCI
Description: as §4

Monilinia fructicola = assay: Volatile MIC assay (Example 9); conditions: 72 h, headspace concentration, 3 days at 23 C, read-out: MIC (mg/L) MONIFC
Description: as §4

Alternaria alternata = assay: Volatile MIC assay (Example 9); conditions: 72 h, headspace concentration, 3 days at 23 C, read-out: MIC (mg/L) ALTEAL
Description: as §4

Botrytis cinerea [7] = assay: In vitro inhibition assay for volatile fungicide, 12-well plates (Example 7); conditions: volatile; 14 days at 4 C
Description: For testing activity against fungi pathogens, an in vitro inhibition assay for volatile antimicrobial compounds is developed using 12-Well (7 milliliter (mL) volume per well) microtiter plates. A 3-mL volume of full-strength Potato Dextrose Agar (PDA) is added to each well. After cooling, 1 microliter (μL) of 1×10^6 per mL Botrytis cinerea spore suspension is spot pipetted to the center of the agar. For the first experiment, inoculated plates are allowed to germinate for 5 days at 4° C. For the second experiment, plates are inoculated immediately prior to volatile fungicide treatment. Small Whatman #1 filter disks (Cat. No. 1001-0155) are placed, in duplicate, on the underside of a polyethylene PCR plate sealing film.
The acetone is permitted to evaporate for 5 minutes. The headspace around the Botrytis cinerea inoculum is then sealed inside the well by the film with the adhering disk containing the fungicide. Plates are inverted, placed over the treated disks and sealed to prevent any of the chemical from flaking from the disk and falling onto the inoculated agar. After 14 days of storage at 4° C., cultures are evaluated for percent growth relative to control. […]

[8] = volatile treatment, 3 days at 23 C
[9] = amended agar, 100% control, 3 days at 23 C

With Nc1ccccc1OB1OCc2cc(F)ccc21 [Compound 116] the MIC (Penicillium expansum [1]; [8]) was 8.9 mg/L (≈ 36.6 µM) and the MIC (Botrytis cinerea [2]; [8]) was 1.1 mg/L (≈ 4.53 µM).

In the case of O[B@@-]1([NH2+]Cc2ccccc2)OCc2ccccc21 [Compound 121], the MIC (Penicillium expansum [1]; [8]) is reported as 17.9 mg/L (≈ 74.2 µM), the MIC (Botrytis cinerea [2]; [8]) is reported as 4.5 mg/L (≈ 18.7 µM) and the MIC (Penicillium expansum [3]) is reported as 17.9 mg/L (≈ 74.2 µM). The MIC (Botrytis cinerea [4]) was 4.5 mg/L (≈ 18.7 µM), the MIC (P. expansum; [9]) was 10 mg/L (≈ 41.5 µM) and the MIC (B. cinerea; [9]) was 10 mg/L (≈ 41.5 µM).

Compound C[Si](C)(C)OB1OCc2ccccc21 [Compound 122] has an MIC (Botrytis cinerea [2]) of 2.2 mg/L (≈ 10.7 µM).

For OB1OCc2cc(Cl)ccc21 [Compound 124], the MIC (Penicillium expansum [1]; [8]) was 8.9 mg/L (≈ 52.9 µM), the MIC (Botrytis cinerea [2]; [8]) was 4.5 mg/L (≈ 26.7 µM) and the MIC (Penicillium expansum [3]) was 8.9 mg/L (≈ 52.9 µM). For the same compound, the MIC (Botrytis cinerea [4]) was 4.5 mg/L (≈ 26.7 µM), the MIC (P. expansum; [9]) was 2 mg/L (≈ 11.9 µM) and the MIC (B. cinerea; [9]) was 2 mg/L (≈ 11.9 µM).

Fc1ccc2c(c1)COB2c1ccccc1 [Compound 127] was tested, and the MIC (Penicillium expansum [1]; [8]) was 4.5 mg/L (≈ 21.2 µM) and the MIC (Botrytis cinerea [2]; [8]) was 2.2 mg/L (≈ 10.4 µM).

C=CB1OCc2cc(F)ccc21 [Compound 129] gave an MIC (Penicillium expansum [1]; [8]) of 8.9 mg/L (≈ 54.9 µM) and an MIC (Botrytis cinerea [2]; [8]) of 4.5 mg/L (≈ 27.8 µM).

N#C[B-]1(O)OCc2cc(F)ccc21.[K+] (centres unmarked) [Compound 130] showed an MIC (Penicillium expansum [1]) of 4.5 mg/L, an MIC (Botrytis cinerea [2]) of 1.1 mg/L and an MIC (P. expansum) of 0.4 mg/L. For the same compound, the MIC (B. cinerea) was 2 mg/L.

N#C[B-]1(O)OCc2cc(F)ccc21.[Na+] (centres unmarked) [Compound 132] showed an MIC (Penicillium expansum [3]) of 4.5 mg/L, an MIC (Botrytis cinerea [4]) of 1.1 mg/L and an MIC (P. expansum; [9]) of 2 mg/L. It also gave an MIC (B. cinerea; [9]) of 2 mg/L.

Fc1ccc(B2OCc3cc(F)ccc32)cc1 [Compound 133] gave an MIC (Penicillium expansum [1]; [8]) of 35.7 mg/L (≈ 155 µM) and an MIC (Botrytis cinerea [2]; [8]) of 8.9 mg/L (≈ 38.7 µM).

With Fc1cccc(B2OCc3cc(F)ccc32)c1 [Compound 134] the MIC (Penicillium expansum [1]; [8]) was greater than 35.7 mg/L and the MIC (Botrytis cinerea [2]; [8]) was 17.9 mg/L (≈ 77.8 µM).

Work on COc1ccc(B2OCc3cc(F)ccc32)cc1 [Compound 135] yielded an MIC (Penicillium expansum [1]; [8]) greater than 35.7 mg/L, an MIC (Botrytis cinerea [2]; [8]) of 17.9 mg/L (≈ 73.9 µM) and an MIC (Penicillium expansum [3]) greater than 35.7 mg/L. It also gave an MIC (Botrytis cinerea [4]) of 17.9 mg/L (≈ 73.9 µM), an MIC (P. expansum; [9]) of 2 mg/L (≈ 8.26 µM) and an MIC (B. cinerea; [9]) of 2 mg/L (≈ 8.26 µM).

Work on COc1cccc(B2OCc3cc(F)ccc32)c1 [Compound 136] yielded an MIC (Penicillium expansum [1]; [8]) greater than 35.7 mg/L and an MIC (Botrytis cinerea [2]; [8]) of 8.9 mg/L (≈ 36.8 µM).

With C=C(C)B1OCc2cc(F)ccc21 [Compound 137] the MIC (Penicillium expansum [1]; [8]) was 1.1 mg/L (≈ 6.25 µM) and the MIC (Botrytis cinerea [2]; [8]) was 0.3 mg/L (≈ 1.7 µM).

In the case of OB1OCc2ccc(F)cc21 [Compound 200], the MIC (Penicillium expansum [5]) is reported as 68.3 mg/L (≈ 450 µM), the MIC (Botrytis cinerea [6]) is reported as 10.6 mg/L (≈ 69.8 µM) and the MIC (Monilinia fructicola) is reported as 6.3 mg/L (≈ 41.5 µM). It also gave an MIC (Alternaria alternata) of 7.3 mg/L (≈ 48 µM).

OB1OCc2c(F)cccc21 [Compound 202] gave an MIC (Penicillium expansum [1]; [8]) of 143 mg/L (≈ 941 µM) and an MIC (Botrytis cinerea [2]; [8]) of 35.7 mg/L (≈ 235 µM).

OB1OCc2cccc(F)c21 [Compound 203] gave an MIC (Penicillium expansum [1]; [8]) of 143 mg/L (≈ 941 µM) and an MIC (Botrytis cinerea [2]; [8]) of 8.9 mg/L (≈ 58.6 µM).

With OB1OCc2cc(F)c(F)cc21 [Compound 204] the MIC (Penicillium expansum [1]; [8]) was greater than 35.7 mg/L and the MIC (Botrytis cinerea [2]; [8]) was 8.9 mg/L (≈ 52.4 µM).

OB1OCc2ccccc21 [Compound B2, 2-(hydroxymethyl)phenylboronic acid cyclic monoester] was tested, and the “Rate giving 100% in vitro inhibition of Botrytis cinerea” value (Botrytis cinerea [7]) was 0.0078 mg/disk.

For Fc1ccc2c(c1)COB2OCCOB1OCc2cc(F)ccc21 [Compound B], the MIC (Penicillium expansum [3]) was 8.9 mg/L (≈ 27 µM), the MIC (Botrytis cinerea [4]) was 0.6 mg/L (≈ 1.82 µM) and the MIC (P. expansum; [9]) was 2 mg/L (≈ 6.06 µM). For the same compound, the MIC (B. cinerea; [9]) was 0.4 mg/L (≈ 1.21 µM).
